The values below come from PMC7604171 (Journal of agricultural and food chemistry, 2020).

In data set [1] the test system is Cal-27 oral squamous cell carcinoma cell line. Description: MTT anti-proliferation assay in Cal-27. The settings on record: for IC50: Homo sapiens, read-out: IC50 anti-proliferation activity; for IC50 anti-proliferation activity: Cal-27, MTT, triplicate. It is filed as cell-based. Background: Tetrazolium dyes change colour on reduction, which living cells bring about.

For data set [2], the system named is SCC-9 oral squamous cell carcinoma cell line. As to the kind of experiment: MTT anti-proliferation assay in SCC-9. The format is cell-based. The note with it: for IC50: Homo sapiens, SCC-9, 72 h, read-out: IC50 anti-proliferation activity; for IC50 anti-proliferation activity: SCC-9, MTT, treatment period 72 hr, triplicate.
Data set [3] is described as follows: Oral pharmacokinetics of ME in corn oil in mice.
Data set [4] in a line: I.V. pharmacokinetics of ME nanosuspension in mice.
A short description of data set [5]: Oral pharmacokinetics of ME nanosuspension in mice. The settings on record: for absolute bioavailability (estimated): oral 60 mg/kg ME nanosuspension vs I.V. 5 mg/kg.
Data set [6] is described as follows: Caco-2 monolayer apical to basolateral transport. The settings on record: human, Caco-2, pH 7.4. It is filed as in vitro ADME.
The next data set can be described thus: in vivo. The settings on record: C57BL/6, mouse, iv, 5 mg/kg.
The test system of a further data set is Caco-2 cell monolayer. Description: Caco-2 monolayer apical to basolateral transport. It is filed as in vitro ADME. The settings on record: ME 0.05 mg/mL in HBSS pH 7.4, 37 °C, n=3. Background: Caco-2 monolayers are a common model of the intestinal barrier.
Data set [7] relates to CYP450 (mouse liver microsomes). As to the kind of experiment: Phase I CYP metabolism of MHNK to HNK in mouse liver microsomes. The note with it: 0.5 µM MHNK, after 60 min, 37 °C. It is filed as in vitro ADME, C57BL/6 mouse. On the technique in general: Microsomes from liver hold many membrane-bound enzymes, among them those of drug oxidation.
The subject of data set [8] is CYP450 (mouse intestinal S9 fraction). Description: Phase I CYP metabolism of MHNK to HNK in mouse intestinal S9 fraction. The note with it: MHNK 5, 1 and 0.5 µM, 60 min. The format is in vitro ADME, C57BL/6 mouse.
The conditions of data set [9]: mouse, in vivo, iv.
The mark [10] stands for this setting: C57BL/6, mouse, in vivo, po, 60 mg/kg.
Where [11] appears, read: C57BL/6, mouse, in vivo, iv, 5 mg/kg.
[12] abbreviates: oral 60 mg ME/kg in corn oil, mouse whole blood, n=5.
Where [13] appears, read: oral 60 mg ME/kg in corn oil, n=5.
Setting [14] is: I.V. 5 mg ME/kg, mouse whole blood, n=5.
Where [15] appears, read: oral 60 mg ME/kg in nanosuspension, mouse whole blood, n=5.
Setting [16] is: oral 60 mg ME/kg in nanosuspension, n=5.

In brackets after ≈: the same amount, converted by molar mass. Several values for one entry are separate records, joined by “and”; a condition that tells them apart may be missing. Identical values can stand only once. Like-named read-outs stand apart in the source and are kept apart here.

In the case of `C=CCc1ccc(O)c(-c2cc(CC=C)ccc2O)c1` [MGN, magnolol], in data set [1] (CAL-27, 24 h), the IC50 is 20.7 ± 1.8 µg/mL (≈ 77.7 µM). Besides, the IC50 in data set [1] (CAL-27, 48 h) came to 11.9 ± 0.6 µg/mL (≈ 44.7 µM). The IC50 in [1] (CAL-27, 72 h) came to 5.1 ± 0.6 µg/mL (≈ 19.1 µM). For the same molecule, in [1] (CAL-27, 96 h), the IC50 is 4 ± 0.8 µg/mL (≈ 15 µM). For the same molecule, the IC50 in data set [2] stood at 7.9 ± 0.4 µg/mL (≈ 29.7 µM). Besides, in [3] (setting [10]), the AUC(0-inf) (usually total exposure, with the tail of the curve extrapolated) came to 37.8 ± 16.5 ng·h/mL; the AUC(0-t) (in general, the area under the concentration-time curve up to a stated or last time point) stood at 23.1 ± 5.3 ng·h/mL; the Cmax (commonly the highest concentration seen after dosing) was 9.4 ± 3.3 ng/mL; the Half-life is 3.8 ± 2.3 h. In data set [3] (setting [10]), the MRT last – broadly, the average time that molecules of a dose stay in the body – was 2.3 ± 0.6 h and the Tmax (in general, the time at which the peak concentration occurs) was found to be 0.9 ± 0.7 h. Moreover, in data set [4] (setting [11]), the AUC(0-inf) was determined as 1230 ± 651 ng·h/mL, the AUC(0-t) came to 1230 ± 650 ng·h/mL, the Cmax is 2280 ± 700 ng/mL and the Half-life is 1 ± 0.3 h. For the same molecule, in [4] (setting [11]), the mean residence time (MRT last) turned out to be 0.8 ± 0.5 h and the clearance (commonly the volume of plasma or blood freed of the substance per unit of time) is 13.3 mL/min/kg. For the same molecule, the V in [4] (I.V. 5 mg ME/kg, n=5) is given as 1.0 ± 0.4 L/kg. In [5] (setting [10]), this molecule had an AUC(0-inf) of 182 ± 28.8 ng·h/mL, an area under the curve AUC(0-t) of 176 ± 27.3 ng·h/mL, a Cmax of 29.1 ± 10.4 ng/mL and a Half-life of 5 ± 1.5 h. Besides, in [5] (setting [10]), the mean residence time MRT last came to 5.1 ± 0.6 h and the Tmax was 2.2 ± 1.5 h. The “absolute bioavailability (estimated)” value in [5] is below 2%.

With `C=CCc1ccc(O)c(-c2ccc(O)c(CC=C)c2)c1` [HNK, honokiol], the IC50 in [1] (CAL-27, 24 h) came to 20.8 ± 1.3 µg/mL (≈ 78.1 µM). Besides, in data set [1] (CAL-27, 48 h), the IC50 came out at 12.2 ± 1 µg/mL (≈ 45.8 µM). Also, the IC50 in data set [1] (CAL-27, 72 h) is 6.6 ± 0.6 µg/mL (≈ 24.8 µM). The IC50 in data set [1] (CAL-27, 96 h) stood at 4.2 ± 0.4 µg/mL (≈ 15.8 µM). Further, the IC50 in data set [2] stood at 5.5 ± 0.6 µg/mL (≈ 20.7 µM). Further, the apical-to-basolateral permeability (Papp A→B) (usually how fast a substance crosses the layer from the apical side) at 4 h, 0.05 mg/mL in data set [6] worked out at 13.4 ×10⁻⁶ cm/s. Also, in “in vivo”, the AUC(0-inf) worked out at 1150 ± 719 ng·h/mL, the AUC(0-t) stood at 1150 ± 719 ng·h/mL, the concentration peaked (Cmax) at 2400 ± 1040 ng/mL and the Half-life was 0.7 ± 0.04 h. Besides, in the data set “in vivo”, the MRT last stood at 0.6 ± 0.1 h and the clearance is 20 mL/min/kg.

As to `C=CCc1ccc(O)c(-c2ccc(OC)c(CC=C)c2)c1` [MHNK, 4-O-methylhonokiol], the IC50 anti-proliferation activity worked out at 14.5 ± 0.9 µg/mL (≈ 51.7 µM) in [1] (treatment period 24 hr); 7.7 ± 0.8 µg/mL (≈ 27.5 µM) in [1] (treatment period 48 hr); 5.6 ± 1.4 µg/mL (≈ 20 µM) in data set [1] (treatment period 72 hr); 3.2 ± 0.3 µg/mL (≈ 11.4 µM) in data set [1] (treatment period 96 hr); 5.2 ± 1.3 µg/mL (≈ 18.5 µM) in data set [2]. Besides, the “apical to basolateral permeability (Pab)” value in the data set on Caco-2 cell monolayer is listed as 7.7 ± 0.4 × 10^−6 cm/sec. For the same molecule, the “MHNK metabolized to HNK” value in data set [7] was 51 ± 23.9%. Also, the “HNK formation from MHNK” value in data set [8] is reported as “no HNK detected”. Also, the “AUC0–24” value was 9.6 ± 4.0 ng·h/mL in data set [3] (setting [12]), 623.2 ± 358.8 ng·h/mL in data set [4] (setting [14]) and 79.9 ± 15.8 ^* hr*ng/mL in data set [5] (setting [15]). For the same molecule, the “AUC0−∞” value in [3] (setting [12]) is 10.8 ± 3.0 ng·h/mL; in data set [4] (setting [14]) it was 631.1 ± 360.0 ng·h/mL; in data set [5] (setting [15]), 86.3 ± 15.7 ^* hr*ng/mL. Further, the Cmax in data set [3] (setting [12]) is given as 3.7 ± 0.9 ng/mL; in data set [4] (setting [14]) it was 824.3 ± 309.5 ng/mL; in data set [5] (setting [15]) it was 14.3 ± 6.6 ng/mL. The Tmax in data set [3] (setting [12]) amounted to 1.3 ± 0.6 h; in data set [5] (setting [15]) it was 3.0 ± 2.0 h. For the same molecule, the Half-life in [3] (setting [13]) is 1.4 ± 0.6 h; in data set [4] (setting [14]), 3 h and 2.9 ± 2.1 h; in data set [5] (setting [16]), 7.1 ± 2.5 h. Also, the “MRT0–24” value in data set [3] (setting [13]) turned out to be 1.8 ± 0.3 h; in [4] (I.V. 5 mg ME/kg, n=5), 1.5 ± 0.6 h; in data set [5] (setting [16]), 5.9 ± 0.7 h. In data set [4] (I.V. 5 mg ME/kg, n=5), this molecule had a CL of 33.3 ± 26.7 mL/min/kg. The molecule also had a V in data set [4] (I.V. 5 mg ME/kg, n=5) of 5.5 ± 1.7 L/kg. For the same molecule, the “absolute bioavailability (estimated)” value in [5] is 1.1% and < 2%.

In the case of `O=c1[nH]cc(F)c(=O)[nH]1` [5-FU, reference compound], the IC50 anti-proliferation activity worked out at 0.4 ± 0.1 µg/mL (≈ 3.08 µM) in data set [1] (treatment period 72 hr) and 1.9 ± 0.4 µg/mL (≈ 14.6 µM) in data set [2].

As for `C=CCc1ccc(O)c(-c2cc(CC=C)ccc2OS(=O)(=O)O)c1` [MGN_Sulfate], in data set [9], the Half-life came to 2.2 ± 0.7 h and the Tmax turned out to be 6 ± 6 min.
